Test results taken from the NIST ThermoML archive (doi:10.1021/acs.jced.7b00564).
Numbers after ± are expanded uncertainties.

Assay: xn = mol fraction of the nth substance listed
Conditions: Gas, isochoric method

C=C(F)C(F)(F)F [2,3,3,3-tetrafluoro-1-propene] + CC(C)C
Conditions	specific volume [m3/kg]
303.15 K, 163.5 kPa, x2 = 0.472	0.1698 ± 0.0015
303.15 K, 180.2 kPa, x2 = 0.606	0.1663 ± 0.001
303.15 K, 246.7 kPa, x2 = 0.234	0.0939 ± 0.0014
303.15 K, 260.6 kPa, x2 = 0.772	0.1279 ± 0.001
303.15 K, 269.3 kPa, x2 = 0.4	0.0942 ± 0.0015
308.15 K, 166.4 kPa, x2 = 0.472	0.1699 ± 0.0015
308.15 K, 183.3 kPa, x2 = 0.606	0.1664 ± 0.001
308.15 K, 251.2 kPa, x2 = 0.234	0.094 ± 0.0022
308.15 K, 265.4 kPa, x2 = 0.772	0.1279 ± 0.001
308.15 K, 274.3 kPa, x2 = 0.4	0.0942 ± 0.0015
308.15 K, 426.8 kPa, x2 = 0.85	0.0797 ± 0.001
313.15 K, 169.2 kPa, x2 = 0.472	0.1699 ± 0.0015
313.15 K, 186.5 kPa, x2 = 0.606	0.1664 ± 0.001
313.15 K, 255.6 kPa, x2 = 0.234	0.094 ± 0.0022
313.15 K, 270.2 kPa, x2 = 0.772	0.1279 ± 0.001
313.15 K, 279.2 kPa, x2 = 0.4	0.0943 ± 0.0015
313.15 K, 435.6 kPa, x2 = 0.85	0.0797 ± 0.001
318.15 K, 172.1 kPa, x2 = 0.472	0.17 ± 0.0014
318.15 K, 189.7 kPa, x2 = 0.606	0.1665 ± 0.0009
318.15 K, 260.1 kPa, x2 = 0.234	0.094 ± 0.0022
318.15 K, 275.1 kPa, x2 = 0.772	0.1279 ± 0.0009
318.15 K, 284.2 kPa, x2 = 0.4	0.0943 ± 0.0014
318.15 K, 444.2 kPa, x2 = 0.85	0.0797 ± 0.001
323.15 K, 174.7 kPa, x2 = 0.472	0.17 ± 0.0014
323.15 K, 192.9 kPa, x2 = 0.606	0.1665 ± 0.0009
323.15 K, 264.6 kPa, x2 = 0.234	0.094 ± 0.0009
323.15 K, 279.9 kPa, x2 = 0.772	0.128 ± 0.0009
323.15 K, 289.2 kPa, x2 = 0.4	0.0943 ± 0.0014
323.15 K, 452.8 kPa, x2 = 0.85	0.0797 ± 0.0009
328.15 K, 177.5 kPa, x2 = 0.472	0.17 ± 0.0014
328.15 K, 196 kPa, x2 = 0.606	0.1665 ± 0.0009
328.15 K, 269 kPa, x2 = 0.234	0.094 ± 0.0009
328.15 K, 284.6 kPa, x2 = 0.772	0.128 ± 0.0009
328.15 K, 294.1 kPa, x2 = 0.4	0.0943 ± 0.0014
328.15 K, 461.2 kPa, x2 = 0.85	0.0797 ± 0.0009
333.15 K, 180.3 kPa, x2 = 0.472	0.1701 ± 0.0014
333.15 K, 199.2 kPa, x2 = 0.606	0.1666 ± 0.0009
333.15 K, 273.4 kPa, x2 = 0.234	0.0941 ± 0.0029
333.15 K, 289.4 kPa, x2 = 0.772	0.128 ± 0.0009
333.15 K, 299 kPa, x2 = 0.4	0.0944 ± 0.0014
333.15 K, 469.7 kPa, x2 = 0.85	0.0798 ± 0.0009
338.15 K, 183.1 kPa, x2 = 0.472	0.1701 ± 0.0014
338.15 K, 202.3 kPa, x2 = 0.606	0.1666 ± 0.0009
338.15 K, 277.8 kPa, x2 = 0.234	0.0941 ± 0.0015
338.15 K, 294.2 kPa, x2 = 0.772	0.1281 ± 0.0009
338.15 K, 303.9 kPa, x2 = 0.4	0.0944 ± 0.0014
338.15 K, 477.9 kPa, x2 = 0.85	0.0798 ± 0.0009
343.15 K, 185.9 kPa, x2 = 0.472	0.1701 ± 0.0013
343.15 K, 205.5 kPa, x2 = 0.606	0.1666 ± 0.0009
343.15 K, 282.2 kPa, x2 = 0.234	0.0941 ± 0.0015
343.15 K, 298.9 kPa, x2 = 0.772	0.1281 ± 0.0009
343.15 K, 308.8 kPa, x2 = 0.4	0.0944 ± 0.0013
343.15 K, 486.3 kPa, x2 = 0.85	0.0798 ± 0.0009
348.15 K, 188.7 kPa, x2 = 0.472	0.1702 ± 0.0013
348.15 K, 208.6 kPa, x2 = 0.606	0.1667 ± 0.0009
348.15 K, 286.6 kPa, x2 = 0.234	0.0941 ± 0.0015
348.15 K, 303.6 kPa, x2 = 0.772	0.1281 ± 0.0009
348.15 K, 313.5 kPa, x2 = 0.4	0.0944 ± 0.0013
348.15 K, 494.6 kPa, x2 = 0.85	0.0798 ± 0.0008
353.15 K, 191.5 kPa, x2 = 0.472	0.1702 ± 0.0013
353.15 K, 211.8 kPa, x2 = 0.606	0.1667 ± 0.0009
353.15 K, 291 kPa, x2 = 0.234	0.0941 ± 0.0015
353.15 K, 308.1 kPa, x2 = 0.772	0.1281 ± 0.0009
353.15 K, 318.3 kPa, x2 = 0.4	0.0944 ± 0.0013
353.15 K, 502.9 kPa, x2 = 0.85	0.0798 ± 0.0008
358.15 K, 194.3 kPa, x2 = 0.472	0.1703 ± 0.0013
358.15 K, 214.9 kPa, x2 = 0.606	0.1667 ± 0.0009
358.15 K, 295.4 kPa, x2 = 0.234	0.0942 ± 0.0013
358.15 K, 312.6 kPa, x2 = 0.772	0.1282 ± 0.0009
358.15 K, 323.2 kPa, x2 = 0.4	0.0945 ± 0.0013
358.15 K, 511.2 kPa, x2 = 0.85	0.0798 ± 0.0008
363.15 K, 197.1 kPa, x2 = 0.472	0.1703 ± 0.0013
363.15 K, 218 kPa, x2 = 0.606	0.1668 ± 0.0009
363.15 K, 299.8 kPa, x2 = 0.234	0.0942 ± 0.0013
363.15 K, 328.1 kPa, x2 = 0.4	0.0945 ± 0.0013
363.15 K, 519.5 kPa, x2 = 0.85	0.0799 ± 0.0008
368.15 K, 200.1 kPa, x2 = 0.472	0.1703 ± 0.0013
368.15 K, 221.1 kPa, x2 = 0.606	0.1668 ± 0.0009
368.15 K, 304.1 kPa, x2 = 0.234	0.0942 ± 0.0013
368.15 K, 332.9 kPa, x2 = 0.4	0.0945 ± 0.0013
368.15 K, 527.7 kPa, x2 = 0.85	0.0799 ± 0.0008
373.15 K, 202.9 kPa, x2 = 0.472	0.1704 ± 0.0012
373.15 K, 224.3 kPa, x2 = 0.606	0.1669 ± 0.0009
373.15 K, 308.5 kPa, x2 = 0.234	0.0942 ± 0.0013
373.15 K, 337.7 kPa, x2 = 0.4	0.0945 ± 0.0012
373.15 K, 535.9 kPa, x2 = 0.85	0.0799 ± 0.0008
378.15 K, 205.7 kPa, x2 = 0.472	0.1704 ± 0.0012
378.15 K, 227.5 kPa, x2 = 0.606	0.1669 ± 0.0008
378.15 K, 313 kPa, x2 = 0.234	0.0942 ± 0.0012
378.15 K, 342.6 kPa, x2 = 0.4	0.0945 ± 0.0012
378.15 K, 544.1 kPa, x2 = 0.85	0.0799 ± 0.0008
383.15 K, 208.5 kPa, x2 = 0.472	0.1704 ± 0.0012
383.15 K, 230.6 kPa, x2 = 0.606	0.1669 ± 0.0008
383.15 K, 317.4 kPa, x2 = 0.234	0.0943 ± 0.0012
383.15 K, 347.4 kPa, x2 = 0.4	0.0946 ± 0.0012
383.15 K, 552.4 kPa, x2 = 0.85	0.0799 ± 0.0008
